Legend:
HIV-1 NL4-3 virus = experiment: In vitro anti-HIV assay in TZM-bl cells; assay type: cell-based
[1] = target: HIV-1NL4-3 capsid protein (CA hexamer); experiment: SPR binding to CA hexamer; details: hexamer versus monomer
[2] = Human plasma stability assay; assay type: in vitro ADME
in vitro = details: human, microsomes
[3] = system: NL4-3 Env pseudo-typed HIV-I virus; experiment: ELISA-based quantification of capsid; assay type: cell-based, HIV-1; details: 10 μM compound, compared to the DMSO control
HIV-1 CA = HIV-1 CA (Human immunodeficiency virus type 1 group M subtype B, UniProt P12493); experiment: In vitro capsid assembly assay; assay type: biochemical; details: capsid 30 μM, compound 50 μM, 3M NaCl, compared to DMSO control

COc1ccc(N(C)C(=O)[C@H](Cc2ccccc2)NC(=O)Cn2cc(-c3cccc(NC(=O)c4ccccc4)c3)nn2)cc1 [6b-2, (S)-N-(3-(1-(2-((1-((4-methoxyphenyl)(methyl)amino)-1-oxo-3-phenylpropan-2-yl)amino)-2-oxoethyl)-1H-1,2,3-triazol-4-yl)phenyl)benzamide]
fold decrease in antiviral activity (HIV-1 NL4-3 virus; EC50 relative to 5b): 3.9 fold

COc1ccc(N(C)C(=O)[C@H](Cc2ccccc2)NC(=O)Cn2cc(-c3ccccc3NC(=O)c3cccc(OC)c3)nn2)cc1 [6a-5, (S)-3-methoxy-N-(2-(1-(2-((1-((4-methoxyphenyl)(methyl)amino)-1-oxo-3-phenylpropan-2-yl)amino)-2-oxoethyl)-1H-1,2,3-triazol-4-yl)phenyl)benzamide]
fold decrease in antiviral activity (HIV-1 NL4-3 virus; EC50 relative to 6a-2): 3.4 fold

COc1ccc(N(C)C(=O)[C@H](Cc2ccccc2)NC(=O)Cn2cc(-c3cccc(NC(=O)c4cccc(F)c4)c3)nn2)cc1 [6b-10, (S)-3-fluoro-N-(3-(1-(2-((1-((4-methoxyphenyl)(methyl)amino)-1-oxo-3-phenylpropan-2-yl)amino)-2-oxoethyl)-1H-1,2,3-triazol-4-yl)phenyl)benzamide]
fold better active (HIV-1 NL4-3 virus; EC50 with respect to 6b-2): 1.3 fold

COc1ccc(N(C)C(=O)[C@H](Cc2ccccc2)NC(=O)Cn2cc(-c3ccccc3NC(=O)c3cccc(F)c3)nn2)cc1 [6a-10, (S)-3-fluoro-N-(2-(1-(2-((1-((4-methoxyphenyl)(methyl)amino)-1-oxo-3-phenylpropan-2-yl)amino)-2-oxoethyl)-1H-1,2,3-triazol-4-yl)phenyl)benzamide]
difference in KD values for hexameric and monomeric CA [1]: no significant differences

COc1ccc(N(C)C(=O)[C@H](Cc2ccccc2)NC(=O)Cn2cc(-c3cccc(NC(C)=O)c3)nn2)cc1 [6b-1, (S)-2-(2-(4-(3-acetamidophenyl)-1H-1,2,3-triazol-1-yl)acetamido)-N-(4-methoxyphenyl)-N-methyl-3-phenylpropanamide]
fold decrease in antiviral activity (HIV-1 NL4-3 virus; EC50 relative to 5b): 4.5 fold

COc1ccc(N(C)C(=O)[C@H](Cc2ccccc2)NC(=O)Cn2cc(-c3ccccc3NC(=O)c3ccccc3F)nn2)cc1 [6a-9, (S)-2-fluoro-N-(2-(1-(2-((1-((4-methoxyphenyl)(methyl)amino)-1-oxo-3-phenylpropan-2-yl)amino)-2-oxoethyl)-1H-1,2,3-triazol-4-yl)phenyl)benzamide]
remaining at 0 h [2]: 100%
CLint scaled at 1 h (in vitro): 84.2 L/h/kg
reduction of p24 of the produced virus [3]: about 15%
difference in KD values for hexameric and monomeric CA [1]: no significant differences

CC(C)[N+](C)(CCOC(=O)C1c2ccccc2Oc2ccccc21)C(C)C [Propantheline bromide, reference compound]
remaining at 0 h [2]: 100%

Cc1[nH]c2ccccc2c1CC(=O)N[C@@H](Cc1ccccc1)C(=O)N(C)c1ccccc1 [PF-74]
CLint scaled at 1 h (in vitro): 130 L/h/kg
effect on in vitro assembly of HIV-1 CA (HIV-1 CA): accelerated the assembly of HIV-1 CA

C[C@]12CC[C@H]3[C@@H](CCC4=CC(=O)CC[C@@]43C)[C@@H]1CC[C@@H]2O [Testosterone]
Remaining (T=60min) (HLM 0.5 mg protein/mL): 3.6%
Remaining (NCF=60min) (HLM, no cofactor (no NADPH regenerating system)): 74.4%
CLint scaled at 1 h (in vitro): 10.2 L/h/kg

COc1ccc(C(=O)Nc2ccccc2-c2cn(CC(=O)N[C@@H](Cc3ccccc3)C(=O)N(C)c3ccc(OC)cc3)nn2)cc1 [6a-6, (S)-4-methoxy-N-(2-(1-(2-((1-((4-methoxyphenyl)(methyl)amino)-1-oxo-3-phenylpropan-2-yl)amino)-2-oxoethyl)-1H-1,2,3-triazol-4-yl)phenyl)benzamide]
EC50 (HIV-1 NL4-3 virus; Human immunodeficiency virus 1, NL43, TZM-bl): > 16.2 µM

COc1ccc(N(C)C(=O)[C@H](Cc2ccccc2)NC(=O)Cn2cc(-c3ccccc3NC(=O)c3ccccc3OC)nn2)cc1 [6a-4, (S)-2-methoxy-N-(2-(1-(2-((1-((4-methoxyphenyl)(methyl)amino)-1-oxo-3-phenylpropan-2-yl)amino)-2-oxoethyl)-1H-1,2,3-triazol-4-yl)phenyl)benzamide]
fold decrease in antiviral activity (HIV-1 NL4-3 virus; EC50 relative to 6a-2): 2.2 fold
